Laboratory results from patent US20240166636A1, “CRYSTALLINE COMPOUNDS AND METHODS OF MAKING THE SAME” (Epizyme, Inc., priority 2019, published 2024).

Experiments:
Type in all cases: physicochemical
[1] = Hygroscopicity (dynamic vapor sorption); conditions: compared to other salt forms of Compound I
Protocol: Dynamic Vapor Sorption (DVS) was measured on a VTI Model SGA-100 system. Measurement method: The relative humidity (RH) was changed in a controlled fashion, in 5% steps from 5.0% to 95.0% then back to 5.0% using the gravimetric vapor sorption system, and the weight percentage change (wt. %) of the sample at each stage was measured.

[2] = Competitive slurry experiments, thermodynamically most stable form; conditions: 50/50% (w/w) mixture of Polymorph A and Polymorph B, slurried for several days, varying water content and temperature
Protocol: Several slurries were prepared, varying the water content and the temperature. […] As a result, the isolation temperature (e.g. in step b-2) was increased (e.g., from 15° C. to 22° C.) and the water content of the solvent system during the cooling crystallization was reduced (e.g., from 9.7% (v/v) to 9.0% (v/v)).

[3] = Intrinsic dissolution rate of polymorphs

SMILES | hygroscopicity [1] | thermodynamically most stable form as a function of temperature and water content in the solvent [2] | Intrinsic Dissolution Rate (IDR) [3] [mg/min/cm^2] | % Rate relative to From A ([3]; IDR relative to Polymorph A) [%]
Br.CCN(c1cc(-c2ccc(CN3CCOCC3)cc2)cc(C(=O)NCc2c(C)cc(C)[nH]c2=O)c1C)C1CCOCC1 [Compound I hydrobromide, N-((4,6-dimethyl-2-oxo-1,2-dihydropyridin-3-yl)methyl)-5-(ethyl (tetrahydro-2H-pyran-4-yl)amino)-4-methyl-4′-(morpholinomethyl)-[1,1′-biphenyl]-3-carboxamide hydrobromide] | low hygroscopicity |  |  | 
CN(C)CCc1c[nH]c2cccc(OP(=O)(O)O)c12 [Polymorph A] |  | stable form at higher temperatures and lower water content | 7.6 | 100
